# Results: US10745731B2, “Recombinant production method” (Hoffmann-La Roche Inc., priority 2015, dated 2020)
# Like-named read-outs stand apart in the source and are kept apart here.
# What was measured:
# HEK293F cells [1] = test: Transient gene expression in HEK293F cells: cell specific productivity of the expressed antibody; type: cell-based, human; settings: for specific productivity after 96 hours: none 2.01; for TGE enhancement after BAY11-7082 treatment compared to the corresponding single treatment: BAY11-7082 added 24 hours after stimulation; for activity at 0.015 µM: 15 nM; for Mean cell specific productivity: untreated 1.71
# Protocol: HEK293F cells were cultivated in F17 medium (Life Technologies) in shaker flasks at 36.5° C., 7.0% CO2 and 80% humidity in a shaker incubator (Kuhner, Mytron). Cells were split every three to four days and were cultivated no longer than five weeks. To avoid overgrowth and to keep them in the exponential phase of growth, viable cell densities (VCD) never exceeded 60*10^5 cells/mL.
# (§1) Transient gene expression is a 5-7 days lasting procedure. The standard operating procedure of this expression system is applicable to shaker flasks with various volumes of cell culture ranging from 80 mL to 2 L. First, half of the cell culture volume is seeded at a viable cell density (VCD) of 8*10^5 cells/mL. After two days of cultivation, cells are split to a VCD of about 12*10^5 cells/mL. On the next day, cells are transfected with a polyethylene imine (PEI)-based transfection reagent at a VCD between 20*10^5 cells/mL and 25*10^5 cells/mL. 3 hours after transfection, the production enhancer (if any) is added. 24 h after transfection, a feeding solution and a glucose bolus is supplemented to avoid the limitation of nutrients. Depending on cell viability, which should not decrease below 50%, the supernatant is harvested five to seven days post transfection and subjected to antibody purification.
# (§2) To compare transient gene expression rates always the same plasmids encoding for one distinct antibody were co-transfected.
# (§3) To co-transfect two plasmids equimolarily, the ratio of the base pair number of one plasmid to the total base pair number was calculated and multiplied with the total amount of DNA (0.5 mg/L). Plasmid one has a size of 10530 bp and plasmid two has a size of 7184 bp and were solved in water to a final concentration of 1 mg/mL. For transfection of one liter cell culture, 297 μL of plasmid one and 203 μl of plasmid two were dissolved in 40 mL phosphate buffered saline (PBS) at room temperature. 1.25 mL JetPEI® solution was added and the solution was mixed well. After incubation for 10-15 min., the mixture was added to the cells. The cells were transfected in a batch containing the whole cell culture necessary for every experiment to avoid variance arising from different transfection efficiencies.
# (§4) 80 mL of the transfected cell culture batch was added to a 125 ml shaker flask. For every experiment, two or three 125 mL shaker flasks were used as biological replicates and treated the same way. Three hours after transfection, cells were split into 125 mL shaker flasks and the cellular treatments with small molecules or ligands were started. Basal protein expression was determined by untreated control samples. To compare samples with the standard operating procedure, cells were also treated with VPA to a final concentration of 4 mM or 3 mM. VPA and its analogues were dissolved in double distilled water. […] Tumor necrosis factor (TNF) alpha was reconstituted with PBS supplemented with 0.1% BSA. Flagellin was dissolved in sterile double distilled water. The applied molecules were not added to the cultivation directly, but diluted in 16 mL medium pre-warmed to 36.5° C. and added to the cultivation thereafter.
# (§5) 24 h after transfection a feeding solution at 36.5° C. and 3 mg/mL glucose were added to the cultivation.
# (§6) To determine cell viability and viable cell density (VCD) 1 mL cultivation medium (cell suspension) was transferred into a Cedex low fouling sample cup. The cup was placed into a Vicell instrument (Beckman Coulter). The instrument mixes cells with trypan blue to stain dead cells. After analysis of 50 images VCD was calculated and viability was determined by calculation of the percentage of viable cell number in relation to the total cell number.
# (§7) Total concentration of the transiently expressed antibody was determined by a turbidimetric test. One mL cell suspension was transferred into an Eppendorf cup and centrifuged for 10 min. at 10,000 rpm (9,300 g).
# HEK293F cells [2] = type: cell-based; settings: in words
# Protocol: as §6
# HDAC [3] = settings: cited from earlier work
# HEK293F cells [4] = test: Transient gene expression in HEK293F cells: IgG concentration / titer (turbidimetric test); type: cell-based, human; settings: none=100, N=1, FIG. 7
# Protocol: as §1, §2, §3, §4, §5
# as §7, with “g). The supernatant was transferred into a new cup and subjected to Cobas Integra 400 plus (Roche) analysis. With comparison to internal standard the absolute concentration was calculated.” for “g).”
# HDAC [5] = test: in situ HDAC activity fluorimetric assay in HEK293F cells; type: cell-based, human; settings: for HDAC inhibition: yes/no, summary table
# Protocol: HDAC activity was determined by the in situ HDAC activity fluorimetric assay kit (Biovision) according to the manufacturer's instructions. HEK293F cells were suspended in F17 medium (Life Technologies) to a cell density of 5*10^5 cells/mL. One hundred micro liter culture was pipetted per well into a black ELISA plate. The plate was centrifuged at 1000 g for 5 min. The supernatant was discarded and the cells were resuspended in a reaction mix containing F17 medium, 1% HDAC substrate and the molecule tested towards HDAC inhibitory activity. 10 μM Trichostatin A was used as a positive control and the basal HDAC activity was determined by re-suspending the cells in F17 medium with 1% HDAC substrate. Furthermore, cells were resuspended in F17 medium without HDAC substrate as a background control. The HDAC activity assay was performed in triplicates for every sample as well as every control. The 96-well plate was incubated at 36.5° C., 80% humidity and 7% CO2 for one hour. During this time, the active HDACs deacetylate the HDAC substrate what releases the quenched fluorescent signal of the substrate. After incubation the fluorescent signal was analyzed by the infinite fluorescence plate reader (TECAN). The fluorescence signal of the samples and controls was normalized by subtracting the fluorescence signal of the background control. It is assumed that the fluorescent signal arising from deacetylation of the substrate directly correlates with HDAC activity.
# [6] = 50 ng/mL, none=100, N=2, FIG. 5
# [7] = description from the literature
compound,measurement,setting,value
"EGF: epidermal growth factor, NFκB activator",specific productivity after 96 hours,"HEK293F cells [1]; 20 ng/mL, single treatment, N=3",2.56 pg/cell/day
same,relative cell specific productivity,HEK293F cells [1]; [6],173%
same,TGE enhancement after BAY11-7082 treatment compared to the corresponding single treatment,HEK293F cells [1],significantly reduced
TNFalpha,relative cell specific productivity,HEK293F cells [1]; [6],139%
same,specific productivity after 96 hours,"HEK293F cells [1]; 50 ng/mL, single treatment, N=3",2.66 pg/cell/day
same,relative cell specific productivity,"HEK293F cells [1]; 50 ng/mL, single treatment, none=100, N=3",157%
same,TGE enhancement after BAY11-7082 treatment compared to the corresponding single treatment,HEK293F cells [1],significantly reduced
C/C=C1\NC(=O)[C@H]2CSSCC/C=C/[C@H](CC(=O)N[C@H](C(C)C)C(=O)N2)OC(=O)[C@H](C(C)C)NC1=O [Romidepsin],activity at 0.015 µM,"HEK293F cells [1]; Homo sapiens, HEK293F, none=100, N=3, FIG. 8A, read-out: relative cell specific productivity",203%
same,activity at 0.015 µM,"HEK293F cells [1]; Homo sapiens, HEK293F, none=100, N=3, FIG. 9A, read-out: relative cell specific productivity",203%
same,toxicity,HEK293F cells [2],mild toxicity
COc1ccc(Cn2ccc3ccc(C(=O)NO)cc32)cc1 [PCI34051],HDAC class / isoform selectivity,HDAC [3]; [7],HDAC 8-specific inhibitor
same,relative IgG concentration,HEK293F cells [4]; 5 μM,99%
Nc1cc(F)ccc1NC(=O)/C=C/c1cnn(C/C=C/c2ccccc2)c1 [RGFP966],HDAC class / isoform selectivity,HDAC [3]; [7],specific HDAC 3 inhibitor
same,relative IgG concentration,HEK293F cells [4]; 1 μM,103%
CCCCOc1ccc(CC(=O)NO)cc1 [Bufexamac],activity at 10 µM,"HEK293F cells [1]; Homo sapiens, HEK293F, employed concentration 10 μM, none=100, N=1, FIG. 2B, read-out: relative cell specific productivity",94%
same,HDAC class / isoform selectivity,HDAC [3]; [7],selective class IIb HDAC inhibitor
CCC(C)C(CC)C(=O)O (centres unmarked) [valnoctic acid],HDAC inhibitory activity,HDAC [3]; [7],weak HDAC inhibitory activity
Nc1ccccc1NC(=O)c1ccc(CNC(=O)OCc2cccnc2)cc1 [Entinostat],activity at 0.3 µM,"HEK293F cells [1]; Homo sapiens, HEK293F, employed concentration 300 nM, none=100, N=2, FIG. 2B, read-out: relative cell specific productivity",108%
same,HDAC class / isoform selectivity,HDAC [3]; [7],class I HDAC inhibitor with additional inhibitory activity to class IIa member HDAC 9
Cc1ccc(NC(=O)CCCCCC(=O)Nc2ccccc2N)cc1 [pimelic diphenylamide 106],activity at 20 µM,"HEK293F cells [1]; Homo sapiens, HEK293F, 20 μM, transfected control=100, N=3, FIG. 3B, read-out: relative cell specific productivity",171%
same,activity at 20 µM,"HEK293F cells [1]; Homo sapiens, HEK293F, employed concentration 20 μM, none=100, N=2, FIG. 2B, read-out: relative cell specific productivity",160%
same,Mean cell specific productivity,HEK293F cells [1]; conc. 20 μM,5.4 (20 μM) pg/cell/24 h
same,HDACi,"HDAC [5]; 20 μM, N=3, FIG. 3A",22.6%
same,HDAC inhibition,HDAC [5],yes
same,HDAC selectivity,"HDAC [3]; HDAC classes, summary table",Class I
same,HDAC class / isoform selectivity,HDAC [3]; [7],"class I HDAC inhibitor with highest affinity towards HDAC 1 and 3, high affinity towards HDAC 2 and modest affinity towards HDAC 8"
O=C(/C=C/c1cccc(S(=O)(=O)Nc2ccccc2)c1)NO [Belinostat],activity at 1 µM,"HEK293F cells [1]; Homo sapiens, HEK293F, employed concentration 1 μM, none=100, N=2, FIG. 2B, read-out: relative cell specific productivity",115%
CCC(C)C(CC)C(N)=O (centres unmarked) [valnoctamide],TGE enhancement,"HEK293F cells [1]; 2 mM, in words",Weak TGE enhancement
same,activity at 3000 µM,"HEK293F cells [1]; Homo sapiens, HEK293F, 3 mM, transfected control=100, N=3, FIG. 3B, read-out: relative cell specific productivity",122%
same,activity at 2000 µM,"HEK293F cells [1]; Homo sapiens, HEK293F, employed concentration 2 mM, none=100, N=2, FIG. 4, read-out: relative cell specific productivity",133%
same,activity at 3000 µM,"HEK293F cells [1]; Homo sapiens, HEK293F, employed concentration 3 mM, none=100, N=2, FIG. 4, read-out: relative cell specific productivity",125%
same,Mean cell specific productivity,HEK293F cells [1]; conc. 3 mM,1.71 (3 mM) pg/cell/24 h
same,Effect on titer/SPR,"HEK293F cells [1]; summary table, in words",weak
same,HDACi,"HDAC [5]; 3 mM, N=3, FIG. 3A",11.1%
same,HDAC inhibition,HDAC [5],no
C=C(C)[C@@H]1CC[C@]2(C(=O)O)CC[C@]3(C)[C@H](CC[C@@H]4[C@@]5(C)CC[C@H](O)C(C)(C)[C@@H]5CC[C@]43C)[C@@H]12 [betulinic acid],activity at 10 µM,"HEK293F cells [1]; Homo sapiens, HEK293F, 10 μM, none=100, N=2, FIG. 5, read-out: relative cell specific productivity",121%
"CCCCCCCCCCCCCC(=O)O[C@@H]1[C@@H](C)[C@@]2(O)[C@@H](C=C(CO)C[C@]3(O)C(=O)C(C)=C[C@@H]23)[C@@H]2C(C)(C)[C@]12OC(C)=O [PMA, phorbol myristate acetate]",activity at 0.1 µM,"HEK293F cells [1]; Homo sapiens, HEK293F, 100 nM, none=100, N=2, FIG. 5, read-out: relative cell specific productivity",149%
"CCC(=O)CCCCC[C@@H]1NC(=O)[C@H]2CCCCN2C(=O)[C@H]([C@@H](C)CC)NC(=O)[C@H](Cc2cn(OC)c3ccccc23)NC1=O [apicidin, Apicidin]",relative IgG concentration,HEK293F cells [4]; 200 nM,182%
Nc1ccccc1NC(=O)c1ccc(CNc2nccc(-c3cccnc3)n2)cc1 [Mocetinostat],activity at 2 µM,"HEK293F cells [1]; Homo sapiens, HEK293F, employed concentration 2 μM, none=100, N=2, FIG. 2B, read-out: relative cell specific productivity",135%
same,HDAC class / isoform selectivity,HDAC [3]; [7],lowest IC50 values for HDAC 1 and 2 and modest inhibitory activity against HDAC 3 and HDAC 11
"Cc1ccc(S(=O)(=O)/C=C/C#N)cc1 [BAY 11-7082, BAY11-7082]",specific productivity after 96 hours,"HEK293F cells [1]; 1 μM alone, N=3",2.21 pg/cell/day
same,specific productivity after 96 hours,"HEK293F cells [1]; 5 μM alone, N=3",2.30 pg/cell/day
same,specific productivity after 96 hours,"HEK293F cells [1]; 15 μM alone, N=3",2.27 pg/cell/day
same,duration of the effect,HEK293F cells [1]; NFκB (IκB kinase) inhibition in transfected HEK293F cells,about 4 days
O=C(NCC1(c2nc(-c3ccccc3)cs2)CCOCC1)c1cccc(-c2noc(C(F)(F)F)n2)c1 [TMP269],relative cell specific productivity,"HEK293F cells [1]; employed concentration 15 μM, none=100, N=2, FIG. 2B",99%
same,HDAC class / isoform selectivity,HDAC [3]; [7],"preference to class IIa HDACs 4, 5, 7, and 9"
CC(/C=C/C(=O)NO)=C\[C@@H](C)C(=O)c1ccc(N(C)C)cc1 [Trichostatin A],HDACi,HDAC [5],99%
